The values below come from ChEMBL document CHEMBL4425152, “New P2X3 receptor antagonists. Part 1: Discovery and optimization of tricyclic compounds” (Bioorg Med Chem Lett, 2016).

Molecules are shown by their SMILES.

This series can be described thus: in vitro. Conditions: human, Caco-2.
Take `COc1cc(C(C)C)c(Oc2cnc(N)nc2N)cc1I`: the Papp – broadly, a coefficient for how fast a substance crosses the barrier – turned out to be 30.6 ×10⁻⁶ cm/s. In the case of `COc1ccc(OC)c(CCn2cnc3sc4c(c3c2=O)CCC(C(=O)N(C)C)C4)c1` (stereo not drawn) it was 46.8 ×10⁻⁶ cm/s; in that of `COc1cc(C(C)C)c(Oc2cnc(N)nc2N)cc1S(N)(=O)=O` [GEFAPIXANT], 0.7 ×10⁻⁶ cm/s.
